Experimental data published in patent US20160257697A1, “THIOPHENE-SUBSTITUTED TETRACYCLIC COMPOUNDS AND METHODS OFUSE THEREOF FOR THE TREATMENT OF VIRAL DISEASES” (priority 2013, published 2016).
Where two headings read alike, the source gives them in different places.

Legend:
Assay in all cases: microbe, parasite or virus in culture
Assay type in all cases: cell-based, Hepatitis C virus (HCV)
HCV replicon 1AQ30D = conditions: Replicon Assay B
HCV replicon 1B = conditions: Replicon Assay B
HCV replicon 2B = conditions: Replicon Assay A
Method in brief: (§1)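 HCV RNA levels were calculated from Ct values (minus intercept, divided by slope) of a Neo primer/probe standard curve, with cyclophilin quantified the same way. Cells were seeded at 2000/well and incubated with compound for 3 days in 5% serum and 0.5% DMSO.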

HCV replicon 1AY93H = conditions: Replicon Assay A
Method in brief: as §1

HCV replicon 1A = conditions: Replicon Assay A
Method in brief: as §1

[1] = Hepatitis C virus, read-out: 1A Q30D IC50 (nM), replicon 1AQ30D
[2] = Hepatitis C virus, read-out: 2B IC50 (nM), replicon 2B
[3] = Hepatitis C virus, read-out: 1A Y93H IC50 (nM), replicon 1AY93H
[4] = read-out: 1A Y93H IC50, replicon 1AY93H
[5] = read-out: 2B IC50, HCV replicon 2B
[6] = read-out: 1A Y93H IC50, HCV replicon 1A Y93H
[7] = Hepatitis C virus, read-out: 1A Q30D IC50, HCV replicon 1A Q30D
[8] = Hepatitis C virus, HCV replicon 1B

COC(=O)NC(C(=O)N1CCC[C@H]1c1ncc(-c2ccc3c(c2)cc2n3C(c3ccc(C4CC4)s3)Oc3cc(-c4cnc([C@@H]5CCCN5C(=O)[C@@H](NC(=O)OC)C(C)C)[nH]4)cc(F)c3-2)[nH]1)C1C[C@@H](C)O[C@@H](C)C1 (single isomer, unassigned) [Compound 206] showed an IC50 (HCV replicon 1AQ30D; [1]) of 2.91 nM, an IC50 (HCV replicon 1B; Hepatitis C virus, replicon 1B) of 2.6 pM and an IC50 (HCV replicon 2B; [2]) of 0.16 nM. The IC50 (HCV replicon 1AY93H; [3]) was 0.16 nM and the IC50 (HCV replicon 1A; Hepatitis C virus, replicon 1A) was 1.4 pM.

With COC(=O)NC(C(=O)N1CCC[C@H]1c1ncc(-c2ccc3c(c2)cc2n3C(c3ccc(C4CC4)s3)Oc3cc(-c4cnc([C@@H]5CCCN5C(=O)[C@@H](NC(=O)OC)C(C)C)[nH]4)cc(F)c3-2)[nH]1)C1CN(C(=O)C2CC2)C1 (single isomer, unassigned) [Compound 267] the IC50 (HCV replicon 1AQ30D; [1]) was 0.08 nM, the IC50 (HCV replicon 1B; Hepatitis C virus, replicon 1B) was 3.9 pM and the IC50 (HCV replicon 2B; read-out: 2B IC50, replicon 2B) was 0.012 nM. It also gave an IC50 (HCV replicon 1AY93H; [4]) of 0.013 nM and an IC50 (HCV replicon 1A; replicon 1A) of 3.5 pM.

COC(=O)NC(C(=O)N1CCC[C@H]1c1ncc(-c2ccc3c(c2)cc2n3C(c3ccc(C4CC4)s3)Oc3cc(-c4cnc([C@@H]5CCCN5C(=O)[C@@H](NC(=O)OC)C(C)C)[nH]4)cc(F)c3-2)[nH]1)C1C2COCC21 (single isomer, unassigned) [Compound 339] gave an IC50 (HCV replicon 1AQ30D; [1]) of 0.133 nM, an IC50 (HCV replicon 1B; Hepatitis C virus, replicon 1B) of 2.2 pM and an IC50 (HCV replicon 2B; read-out: 2B IC50, replicon 2B) of 0.0292 nM. For the same compound, the IC50 (HCV replicon 1AY93H; [4]) was 0.0047 nM and the IC50 (HCV replicon 1A; replicon 1A) was 2 pM.

Compound COC(=O)N[C@H](C(=O)N1CCC[C@H]1c1ncc(-c2cc(F)c3c(c2)OC(c2ccc(CC4CC4)s2)n2c-3cc3cc(-c4cnc([C@@H]5C[C@H]6C[C@H]6N5C(=O)[C@@H](NC(=O)OC)C(C)C)[nH]4)ccc32)[nH]1)C(C)C (single isomer, unassigned) [Compound 389] has an IC50 (HCV replicon 1AQ30D; [1]) of 0.23 nM, an IC50 (HCV replicon 1B; Hepatitis C virus, replicon 1B) of 3.9 pM and an IC50 (HCV replicon 2B; read-out: 2B IC50, replicon 2B) of 0.0691 nM. The IC50 (HCV replicon 1AY93H; [4]) was 0.0137 nM and the IC50 (HCV replicon 1A; Hepatitis C virus, replicon 1A) was 2.7 pM.

With COC(=O)NC(C(=O)N1[C@@H]2C[C@@H]2C[C@H]1c1ncc(-c2ccc3c(c2)cc2n3C(c3ccc(C4CC4)s3)Oc3cc(-c4cnc([C@@H]5CCCN5C(=O)[C@@H](NC(=O)OC)C(C)C)[nH]4)cc(F)c3-2)[nH]1)C1C[C@@H](C)O[C@@H](C)C1 (single isomer, unassigned) [Compound 272] the IC50 (HCV replicon 1AQ30D; read-out: 1A Q30D IC50, replicon 1AQ30D) was 2.39 nM, the IC50 (HCV replicon 1B; replicon 1B) was 3.3 pM and the IC50 (HCV replicon 2B; read-out: 2B IC50, replicon 2B) was 2.75 nM. It also gave an IC50 (HCV replicon 1AY93H; [4]) of 1 nM and an IC50 (HCV replicon 1A; replicon 1A) of 2.7 pM.

For COC(=O)NC(C(=O)N1CCC[C@H]1c1ncc(-c2ccc3c(c2)cc2n3C(c3ccc(CC(F)(F)F)s3)Oc3cc(-c4cnc([C@@H]5CCCN5C(=O)[C@@H](NC(=O)OC)C(C)C)[nH]4)cc(F)c3-2)[nH]1)C1C[C@@H](C)O[C@@H](C)C1 (single isomer, unassigned) [Compound 382], the IC50 (HCV replicon 1AQ30D; replicon 1AQ30D, read-out: 1A Q30D IC50) was 0.0229 nM, the IC50 (HCV replicon 1B; replicon 1B) was 2.5 pM and the IC50 (HCV replicon 2B; replicon 2B, read-out: 2B IC50) was 0.008 nM. The IC50 (HCV replicon 1AY93H; replicon 1AY93H, read-out: 1A Y93H IC50) was 0.0034 nM and the IC50 (HCV replicon 1A; replicon 1A) was 1.7 pM.

Work on COC(=O)N[C@H](C(=O)N1C2CC2C[C@H]1c1ncc(-c2cc(F)c3c(c2)OC(c2ccc(C4CC4)s2)n2c-3cc3cc(-c4cnc([C@@H]5CCCN5C(=O)[C@@H](NC(=O)OC)C5C[C@@H](C)O[C@@H](C)C5)[nH]4)ccc32)[nH]1)C(C)C (single isomer, unassigned) [Compound 557] yielded an IC50 (HCV replicon 1AQ30D; read-out: 1A Q30D IC50, HCV replicon 1A Q30D) of 0.041 nM, an IC50 (HCV replicon 1B; HCV replicon 1B) of 2.49 pM and an IC50 (HCV replicon 2B; [5]) of 0.0151 nM. For the same compound, the IC50 (HCV replicon 1AY93H; [6]) was 0.00464 nM and the IC50 (HCV replicon 1A; HCV replicon 1A) was 3.1 pM.

CCc1ccc(C2Oc3cc(-c4cnc([C@@H]5CCCN5C(=O)[C@@H](NC(=O)OC)C(C)C)[nH]4)ccc3-c3c(F)c4cc(-c5cnc([C@@H]6CCCN6C(=O)[C@@H](NC(=O)OC)C(C)C)[nH]5)ccc4n32)s1 (single isomer, unassigned) [Compound 602] gave an IC50 (HCV replicon 1AQ30D; [7]) of 0.597 nM, an IC50 (HCV replicon 1B; [8]) of 1.7 pM and an IC50 (HCV replicon 2B; [5]) of 0.143 nM. It also gave an IC50 (HCV replicon 1AY93H; [6]) of 0.066 nM and an IC50 (HCV replicon 1A; HCV replicon 1A) of 1 pM.

COC(=O)NC(C(=O)N1[C@@H]2C[C@@H]2C[C@H]1c1ncc(-c2ccc3c(c2)cc2n3C(c3ccc(C4CC4)s3)Oc3cc(-c4cnc([C@@H]5CCCN5C(=O)[C@@H](NC(=O)OC)C(C)C)[nH]4)cc(F)c3-2)[nH]1)C1CCOC(C)(C)C1 (some centres unmarked) [Compound 275] was tested, and the IC50 (HCV replicon 1AQ30D; [1]) was 0.023 nM, the IC50 (HCV replicon 1B; Hepatitis C virus, replicon 1B) was 3.2 pM and the IC50 (HCV replicon 2B; [2]) was 0.006 nM. The IC50 (HCV replicon 1AY93H; [3]) was 0.003 nM and the IC50 (HCV replicon 1A; Hepatitis C virus, replicon 1A) was 1.9 pM.

In the case of COC(=O)N[C@H](C(=O)N1CCC[C@H]1c1nc(-c2cc(F)c3c(c2)OC(c2ccc(C4CC4)s2)n2c-3cc3cc(-c4c[nH]c([C@@H]5C[C@H]6C[C@H]6N5C(=O)[C@@H](NC(=O)OC)C(C)C)n4)ccc32)c[nH]1)C(C)C (single isomer, unassigned) [Compound 721], the IC50 (HCV replicon 1AQ30D; [7]) is reported as 0.17 nM, the IC50 (HCV replicon 1B; [8]) is reported as 1.5 pM and the IC50 (HCV replicon 2B; [5]) is reported as 0.05 nM. For the same compound, the IC50 (HCV replicon 1AY93H; [6]) was 0.0045 nM and the IC50 (HCV replicon 1A; HCV replicon 1A) was 1.5 pM.
